Results from patent US20250340561A1, “QUINAZOLINE COMPOUND FOR INDUCING DEGRADATION OF G12D MUTANT KRAS PROTEIN” (Astellas Pharma Inc., priority 2021, published 2025).
Counter-ions that a name gives are not always drawn.

These compounds were tested against T1, KRAS G12D (Homo sapiens, UniProt P01116, G12D) (assay: Test Example 1-1: KRAS degradation action in AsPC-1, sandwich ELISA). Conditions: AsPC-1 cells, 24 hours treatment, corrected with β-actin, 0% = 10 μM Example No. 7.
T1 construct: host or cells: AsPC-1 human pancreatic cancer cells
Assay type: cell-based
Description: Test Example 1-1: Evaluation of KRAS Degradation Action on Human G12D Mutant KRAS-Positive Pancreatic Cancer Line AsPC-1
The KRAS degradation action of test compounds was evaluated by measuring the expression levels of KRAS G12D by a sandwich ELISA method.
AsPC-1 cells (ATCC, CRL-1682) were seeded at 90 μL per well on a 96-well plate (from IWAKI) to give 1.8×10^4 cells per well. As for the cell culture conditions, RPMI 1640 medium (from Merck) containing 10% fetal bovine serum (from Cytiva) was used in the presence of 5% CO2 at 37° C.
The next day, the test compounds (10 points having final concentrations in the range of 10 μM to 0.3 nM) were diluted 100-fold with a fresh medium and were added at 10 μL per well. The same treatments were each applied to 4 wells. In addition, in production of the sandwich ELISA plate, a capture antibody (anti-KRAS antibody, from LS Bio) mixed in Phosphate Buffered Saline [PBS; from FUJIFILM Wako Pure Chemical Corporation] in 1,000-fold dilution was added at 20 μL per well to a Maxisorp 384-well plate (from Thermo Scientific), and after attaching a seal, the plate was allowed to stand at 4° C. overnight.
After 24 hours of the test compound treatment, the culture supernatant was discarded. Immediately, a cytolytic solution (produced by adding, to a RIPA buffer [from Thermo Scientific], a Halt Protease Phosphatese Inhibitor Cocktail [from Thermo Scientific] and Benzonase Nuclease [from Merck] in amounts of 1/100 and 1/500, respectively) was added at 50 μL per well, and the cells were lysed. Then, equally treated 4 wells were combined to prepare a cell lysate sample of 200 μL in total. For KRAS detection, the Maxisorp 384-well plate which had been treated with the capture antibody since the previous day was washed (twice with 25 μL each) with 0.05% Tween-20-containing PBS (from Thermo Scientific; 20×PBS Tween-20 was diluted 20-fold with ion exchange water and used) and was treated with a blocking solution (Intercept Blocking Buffer; from LI-COR Biosciences) for 60 minutes, and then, the cell lysate samples were added at 20 μL per well. For 3-actin detection, the cell lysate samples were added as they were at 20 μL per well to the Maxisorp 384-well plate, and after attaching a seal, the plate was allowed to stand at 4° C. overnight.
The next day, after washing the KRAS detection plate with 0.05% Tween-20-containing PBS, an anti-Ras (G12D mutant specific) antibody (from Cell Signaling Technology) diluted 1,000-fold with a blocking solution was added at 20 μL per well as a detection antibody, and the plate was allowed to stand for 5 hours at room temperature. Then, the plate was centrifuged to remove the supernatant (using a centrifugal dehydrator machine, the supernatant was removed by the same method hereinafter) and was washed with 0.05% Tween-20-containing PBS. Then, an anti-Rabbit IgG […] antibody (from Cell Signaling Technology) diluted 1,000-fold with a blocking solution was added at 20 μL per well as a secondary antibody, and the plate was allowed to stand for 1 hour at room temperature. The plate was centrifuged to remove the supernatant and was washed with 0.05% Tween-20-containing PBS. Then, a BM chemiluminescent ELISA substrate (from Merck) was added at 20 μL per well, and the amounts of luminescence were measured with 2103 EnVision (from PerkinElmer). In addition, the 3-actin detection plate was washed with 0.05% Tween-20-containing PBS and was treated with a blocking solution for 60 minutes, and then, an anti-β-actin antibody (from Abcam) diluted 1,000-fold with a blocking solution was added at 20 μL per well as a detection antibody. The plate was allowed to stand for 5 hours at room temperature. Then, the plate was centrifuged to remove the supernatant and washed with 0.05% Tween-20-containing PBS, and then, an anti-Mouse IgG RP-linked antibody (from Cell Signaling Technology) diluted 1,000-fold with a blocking solution was added at 20 μL per well as a secondary antibody. […]

T1 sequence (P01116 1-188 isoform P01116-2 G12D): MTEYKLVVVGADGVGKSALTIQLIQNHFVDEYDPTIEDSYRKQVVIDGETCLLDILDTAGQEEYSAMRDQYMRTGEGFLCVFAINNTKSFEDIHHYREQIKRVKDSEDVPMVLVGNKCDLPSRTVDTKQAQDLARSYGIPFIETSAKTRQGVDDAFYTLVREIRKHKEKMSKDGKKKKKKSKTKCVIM

Question: Cc1c(F)cc2[nH]ncc2c1-c1c(C2CC2)cc2c(N3C[C@@H]4C[C@H]3CN4)nc(OC3CCOCC3)nc2c1OCc1ccc(-c2cn([C@H](C(=O)N3C[C@H](O)C[C@H]3C(=O)N[C@@H](CO)c3ccc(Br)cc3)C(C)C)nn2)cc1 [Example 12] was tested. Which DC50 did it give?
Answer: 136 nM

Question: Cc1c(F)cc2[nH]ncc2c1-c1c(C2CC2)cc2c(N3C[C@@H]4C[C@H]3CN4)nc(OC3CCOCC3)nc2c1OCc1ccc(-c2cn([C@H](C(=O)N3C[C@H](O)C[C@H]3C(=O)N[C@@H](CO)c3ccc(-c4scnc4CO)cc3)C(C)C)nn2)cc1 [Example 18, (4R)-1-[(2S)-2-(4-{4-[({6-cyclopropyl-4-[(1S,4S)-2,5-diazabicyclo[2.2.1]heptan-2-yl]-7-(6-fluoro-5-methyl-1H-indazol-4-yl)-2-[(oxan-4-yl)oxy]quinazolin-8-yl}oxy)methyl]phenyl}-1H-1,2,3-triazol-1-yl)-3-methylbutanoyl]-4-hydroxy-N-[(1R)-2-hydroxy-1-{4-[4-(hydroxymethyl)-1,3-thiazol-5-yl]phenyl}ethyl]-L-prolinamide n hydrochloride] was tested. Which DC50 did it give?
Answer: 74 nM

Question: For Cc1ncsc1-c1ccc([C@H](CO)NC(=O)[C@@H]2C[C@@H](O)CN2C(=O)[C@H](C(C)C)n2cc(-c3ccc(COc4c(-c5c(C)c(F)cc6[nH]ncc56)c(C5CC5)cc5c(N6C[C@@H]7C[C@H]6CN7)nc(OC6CCN(CC(F)F)CC6)nc45)cc3)nn2)cc1 [Example 21], which DC50 is on record?
Answer: 72 nM

Question: Cc1ncsc1-c1ccc(C2(NC(=O)[C@@H]3C[C@@H](O)CN3C(=O)[C@H](C(C)C)n3cc(-c4ccc(COc5c(-c6c(C)c(F)cc7[nH]ncc67)c(C6CC6)cc6c(N7C[C@@H]8C[C@H]7CN8)nc(OC7CCOCC7)nc56)cc4)nn3)CC2)cc1 [Example 6] was tested. Which DC50 did it give?
Answer: 103 nM

Question: With Cc1ncsc1-c1ccc(C2(NC(=O)[C@@H]3C[C@@H](O)CN3C(=O)[C@@H](NC(=O)c3ccc(COc4c(-c5c(C)c(F)cc6[nH]ncc56)c(C5CC5)cc5c(N6C[C@@H]7C[C@H]6CN7)nc(OC6CCOCC6)nc45)cn3)C(C)C)CC2)cc1 [Example 2] as the compound, how does the DC50 read?
Answer: 598 nM

Question: Which DC50 does the source give for Cc1c(F)cc2[nH]ncc2c1-c1c(C2CC2)cc2c(N3C[C@@H]4C[C@H]3CN4)nc(OC3CCOCC3)nc2c1OCc1ccc(-c2cn([C@H](C(=O)N3C[C@H](O)C[C@H]3C(=O)N[C@@H](CO)c3ccc(-c4ccnn4C)cc3)C(C)C)nn2)cc1 [Example 22] here?
Answer: 62 nM

Question: Cc1ncsc1-c1ccc([C@H](CO)NC(=O)[C@@H]2C[C@@H](O)CN2C(=O)[C@H](C(C)C)n2cc(-c3ccc(COc4c(-c5c(C)c(F)cc6[nH]ncc56)c(C5CC5)cc5c(N6C[C@@H]7C[C@H]6CN7)nc(OC6CCOCC6)nc45)cc3)nn2)cc1 [Example 8, (4R)-1-[(2S)-2-(4-{4-[({6-cyclopropyl-4-[(1S,4S)-2,5-diazabicyclo[2.2.1]heptan-2-yl]-7-(6-fluoro-5-methyl-1H-indazol-4-yl)-2-[(oxan-4-yl)oxy]quinazolin-8-yl}oxy)methyl]phenyl}-1H-1,2,3-triazol-1-yl)-3-methylbutanoyl]-4-hydroxy-N-{(1R)-2-hydroxy-1-[4-(4-methyl-1,3-thiazol-5-yl)phenyl]ethyl}-L-prolinamide] was tested. Which DC50 did it give?
Answer: 37 nM

Question: For CCn1nccc1-c1ccc([C@H](CO)NC(=O)[C@@H]2C[C@@H](O)CN2C(=O)[C@H](C(C)C)n2cc(-c3ccc(COc4c(-c5c(C)c(F)cc6[nH]ncc56)c(C5CC5)cc5c(N6C[C@@H]7C[C@H]6CN7)nc(OC6CCOCC6)nc45)cc3)nn2)cc1 [Example 26], which DC50 is on record?
Answer: 24 nM

Question: How did the DC50 turn out when CCOc1nc(N2C[C@@H]3C[C@H]2CN3)c2cc(C3CC3)c(-c3c(C)c(F)cc4[nH]ncc34)c(OCc3ccc(C(=O)N[C@H](C(=O)N4C[C@H](O)C[C@H]4C(=O)N[C@@H](CO)c4ccc(-c5scnc5C)cc4)C(C)C)cc3)c2n1 [Example 5] was run?
Answer: 153 nM

Question: With Cc1c(F)cc2[nH]ncc2c1-c1c(C2CC2)cc2c(N3C[C@@H]4C[C@H]3CN4)nc(OC3CCOCC3)nc2c1OCc1ccc(-c2cn([C@H](C(=O)N3C[C@H](O)C[C@H]3C(=O)N[C@@H](CO)c3ccccc3)C(C)C)nn2)cc1 (atropisomer, axis not shown) [Example 14] as the compound, how does the DC50 read?
Answer: 221 nM
